Reference: patent publication US8946225B2, “Derivatives of 2H pyridazin-3-ones, their preparation and their use as SCD-1 inhibitors” (Pierre Fabre Medicament, priority 2009, dated 2015)
Blank lines part the entries; values can stand above or below the compound they belong to.

Legend:
[1] = target: T1, SCD-1 (Homo sapiens, UniProt O00767); experiment: Human enzymatic activity of SCD-1 from microsomes of HepG2 cells (conversion of [14C] stearic acid to oleic acid, HPLC); assay type: biochemical; conditions: microsomal fraction of HepG2 cells, 62 μM stearic acid, 20 minutes at 37° C., vs vehicle 0.1% DMSO; read-out: HSCD-1 (HEPG2) IC50
T1 construct: addition of 125 μg of microsomal fraction of HepG2 cells; host or cells: HepG2 human hepatocarcinoma cells (microsomal fraction)
T1 sequence (O00767 1-359): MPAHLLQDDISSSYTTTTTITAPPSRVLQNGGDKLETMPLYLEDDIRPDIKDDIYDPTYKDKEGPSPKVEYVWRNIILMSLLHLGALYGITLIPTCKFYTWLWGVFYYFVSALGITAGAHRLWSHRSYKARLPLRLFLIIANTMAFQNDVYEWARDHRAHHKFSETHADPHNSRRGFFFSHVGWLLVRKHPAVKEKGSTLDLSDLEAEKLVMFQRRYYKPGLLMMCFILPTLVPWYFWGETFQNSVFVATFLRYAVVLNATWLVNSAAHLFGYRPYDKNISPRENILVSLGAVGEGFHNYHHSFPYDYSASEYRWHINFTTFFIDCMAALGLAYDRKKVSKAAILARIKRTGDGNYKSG
Method: In vitro: Human enzymatic activity of SCD-1 from microsomes of HepG2 cells after treatment with the inhibitor compounds (% inhibition).
HepG2 cells of human hepatocarcinoma (ATCC, HB-8065) are cultured at confluence then trypsinated. The cell residue is solubilized in 10 mM Tris buffer (pH 7.4) sucrose (250 mM) DTT (1 mM) then the cells are lysed by sonication. The microsomes are obtained after centrifuging at 10,000 g for 20 minutes at 4° C. followed by centifrugation of the supernatant at 100,000 g for 60 minutes at 4° C. The residue is solubilized in 10 mM Tris buffer (pH 7.4) sucrose (250 mM) at 4° C. and the microsomal proteins are assayed and stored at −196° C. (liquid nitrogen).
The enzymatic reaction measures the conversion of stearic acid (C18:0 fatty acid) into oleic acid (C18:1 fatty acid) by SCD-1. The enzymatic reaction is initiated by the addition of 125 μg of microsomal fraction of HepG2 cells to tubes (total reaction volume of 500 μl) containing 62 μM stearic acid (45 μM stearic acid and 17 μM [^14C] stearic acid) in 100 mM phosphate buffer (pH 7.16) with 7.2 mM ATP, 0.54 mM CoA, 6 mM MgCl2, 0.8 mM NADH and the inhibitor compound or vehicle (0.1% DMSO). The tubes are incubated for 20 minutes at 37° C. then the enzymatic reaction is halted by the addition of KOH (12%) and saponification for 30 minutes at 80° C. After acidification (3N HCl), the fatty acids are extracted twice with ethyl ether, evaporated under nitrogen before being solubilized in methanol/dichloromethane (3:1). The reaction product (C18:1) is separated from the reaction substrate (C18:0) by HPLC (Perkin Elmer, C18 reverse phase column) coupled with an in-line radioactivity detector (FlowOne). Enzymatic activity is measured in picomoles of stearic acid converted to oleic acid per minute and per mg of protein. For each inhibitor compound, an IC50 value is determined, compared with the reference enzymatic activity (vehicle 0.1% DMSO). Sterculic acid is the reference inhibitor compound (Gomez F. E., Bauman D. E., Ntambi J. M., Fox B. G. Effects of sterculic acid on stearoyl-CoA desaturase in differentiating […] adipocytes. Biochem Biophys Res Commun. 300 316-326 (2003).

melting point: 170 °C
SMILES: Cn1nccc(NCC(=O)N2CCN(C(=O)c3ccccc3C(F)(F)F)CC2)c1=O [Example 30, 2-Methyl-4-{2-oxo-2-[4-(2-trifluoromethyl-benzoyl)-piperazin-1-yl]-ethylamino}-2H-pyridazin-3-one]

melting point: 174 °C
SMILES: Cn1nccc(NCC(=O)N2CC(COc3cc(C(F)(F)F)ccc3Cl)C2)c1=O [Example 33, 4-{2-[3-(2-Chloro-5-trifluoromethyl-phenoxymethyl)-azetidin-1-yl]-2-oxo-ethylamino}-2-methyl-2H-pyridazin-3-one]

IC50 [1]: 300 nM
SMILES: Cn1nccc(CCC(=O)N2CCC(Oc3cc(C(F)(F)F)ccc3Cl)CC2)c1=O [Example 37, 4-{3-[4-(2-Chloro-5-trifluoromethyl-phenoxy)-piperidin-1-yl]-3-oxo-propyl}-2-methyl-2H-pyridazin-3-one]

melting point: 70 °C
SMILES: C[C@@H](Nc1ccnn(C)c1=O)C(=O)N1CCC(Oc2cc(C(F)(F)F)ccc2Cl)CC1 [Example 38, 4-{(R)-2-[4-(2-Chloro-5-trifluoromethyl-phenoxy)-piperidin-1-yl]-1-methyl-2-oxo-ethylamino}-2-methyl-2H-pyridazin-3-one]

melting point: 70 °C
SMILES: C[C@H](Nc1ccnn(C)c1=O)C(=O)N1CCC(Oc2cc(C(F)(F)F)ccc2Cl)CC1 [Example 39, 4-{(S)-2-[4-(2-Chloro-5-trifluoromethyl-phenoxy)-piperidin-1-yl]-1-methyl-2-oxo-ethylamino}-2-methyl-2H-pyridazin-3-one]

IC50 [1]: 10 to 100 nM
SMILES: O=C(CNc1ccn[nH]c1=O)N1CCC(Oc2cc(Cl)ccc2Cl)CC1 [Example 41, 4-{2-[4-(2,5-dichloro-phenoxy)-piperidin-1-yl]-2-oxo-ethylamino}-2H-pyridazin-3-one]

IC50 [1]: 10 to 100 nM
SMILES: O=C(CNc1ccn[nH]c1=O)N1CCC(Oc2cc(Br)ccc2Cl)CC1 [Example 42, 4-{2-[4-(5-Bromo-2-Chloro-phenoxy)-piperidin-1-yl]-2-oxo-ethylamino}-2H-pyridazin-3-one]

IC50 [1]: 10 to 100 nM
SMILES: O=C(CNc1ccn[nH]c1=O)N1CCC(Oc2cc(F)c(F)cc2Br)CC1 [Example 43, 4-{2-[4-(2-Bromo-4,5-difluoro-phenoxy)-piperidin-1-yl]-2-oxo-ethylamino}-2H-pyridazin-3-one]

IC50 [1]: 100 to 1000 nM
SMILES: O=C(CNc1ccn[nH]c1=O)N1CCC(Oc2cccc(C(F)(F)F)c2)CC1 [Example 44, 4-{2-[4-(3-trifluoromethyl-phenoxy)-piperidin-1-yl]-2-oxo-ethylamino}-2H-pyridazin-3-one]

IC50 [1]: 100 to 1000 nM
SMILES: O=C(CNc1ccnn(CCCC(F)(F)F)c1=O)N1CCC(Oc2cc(C(F)(F)F)ccc2Cl)CC1 [Example 45, 4-{2-[4-(2-Chloro-5-trifluoromethyl-phenoxy)-piperidin-1-yl]-2-oxo-ethylamino}-2-(4,4,4-trifluoro-butyl)-2H-pyridazin-3-one]

IC50 [1]: 1000 nM
SMILES: CC#CCn1nccc(NCC(=O)N2CCC(Oc3cc(C(F)(F)F)ccc3Cl)CC2)c1=O [Example 46, 2-But-2-ynyl-4-{2-[4-(2-chloro-5-trifluoromethyl-phenoxy)-piperidin-1-yl]-2-oxo-ethylamino}-2H-pyridazin-3-one]

IC50 [1]: 300 to 1000 nM
SMILES: CC(C)CCCn1nccc(NCC(=O)N2CCC(Oc3cc(C(F)(F)F)ccc3Cl)CC2)c1=O [Example 47, 4-{2-[4-(2-Chloro-5-trifluoromethyl-phenoxy)-piperidin-1-yl]-2-oxo-ethylamino}-2-(4-methyl-pentyl)-2H-pyridazin-3-one]

IC50 [1]: 1000 to 10000 nM
SMILES: O=C(CNc1ccnn(Cc2ccccc2)c1=O)N1CCC(Oc2ccccc2C(F)(F)F)CC1 [Example 48, 2-Benzyl-4-{2-oxo-2-[4-(2-trifluoromethyl-phenoxy)-piperidin-1-yl]-ethylamino}-2H-pyridazin-3-one]

melting point: 180 °C
SMILES: CC(C)n1nccc(NCC(=O)N2CCC(Oc3ccccc3C(F)(F)F)CC2)c1=O [Example 49, 2-Isopropyl-4-{2-oxo-2-[4-(2-trifluoromethyl-phenoxy)-piperidin-1-yl]-ethylamino}-2H-pyridazin-3-one]

melting point: 82 °C
SMILES: CCCCn1nccc(NCC(=O)N2CCC(Oc3ccccc3Cl)CC2)c1=O [Example 50, 2-Butyl-4-{2-[4-(2-chloro-phenoxy)-piperidin-1-yl]-2-oxo-ethylamino}-2H-pyridazin-3-one]

IC50 [1]: 300 nM
SMILES: CCCCCCCCC1=C(CCCCCCCC(=O)O)C1 [Sterculic acid, reference compound]

More lines, now with the values behind:

SMILES: Cn1nccc(NCC(=O)N2CCC(Oc3ccccc3C(F)(F)F)CC2)c1=O [Example 1, 2-Methyl-4-{2-oxo-2-[4-(2-trifluoromethyl-phenoxy)-piperidin-1-yl]-ethylamino}-2H-pyridazin-3-one]
melting point: 50 °C | IC50 [1]: 100 to 1000 nM

SMILES: Cn1nccc(NCC(=O)N2CCC(Oc3cc(F)ccc3C(F)(F)F)CC2)c1=O [Example 2, 4-{2-[4-(5-Fluoro-2-trifluoromethyl-phenoxy)-piperidin-1-yl]-2-oxo-ethylamino}-2-methyl-2H-pyridazin-3-one]
melting point: 140 °C | IC50 [1]: 30 to 100 nM

SMILES: Cn1nccc(NCC(=O)N2CCC(Oc3cc(F)ccc3F)CC2)c1=O [Example 13, 4-{2-[4-(2,5-Difluoro-phenoxy)-piperidin-1-yl]-2-oxo-ethylamino}-2-methyl-2H-pyridazin-3-one]
melting point: 160 °C

SMILES: Cn1nccc(NCC(=O)N2CCC(Oc3ccccc3[N+](=O)[O-])CC2)c1=O [Example 15, 2-Methyl-4-{2-[4-(2-nitro-phenoxy)-piperidin-1-yl]-2-oxo-ethylamino}-2H-pyridazin-3-one]
melting point: 160 °C

SMILES: CN(CC(=O)N1CCC(Oc2ccccc2Cl)CC1)c1ccnn(C)c1=O [Example 18, 4-({2-[4-(2-Chloro-phenoxy)-piperidin-1-yl]-2-oxo-ethyl}-methyl-amino)-2-methyl-2H-pyridazin-3-one]
IC50 [1]: 3000 to 10000 nM

SMILES: Cn1ncc(NCC(=O)N2CCC(Oc3ccccc3C(F)(F)F)CC2)cc1=O [Example 19, 2-Methyl-5-{2-oxo-2-[4-(2-trifluoromethyl-phenoxy)-piperidin-1-yl]-ethylamino}-2H-pyridazin-3-one]
melting point: 245 to 260 °C

SMILES: Cn1ncc(NCC(=O)N2CCC(Oc3cc(F)ccc3Cl)CC2)cc1=O [Example 20, 5-{2-[4-(2-Chloro-5-fluoro-phenoxy)-piperidin-1-yl]-2-oxo-ethylamino}-2-methyl-2H-pyridazin-3-one]
IC50 [1]: ~10000 nM

SMILES: Cn1nccc(OCC(=O)N2CCC(Oc3ccccc3OC(F)(F)F)CC2)c1=O [Example 21, 2-Methyl-4-{2-oxo-2-[4-(2-trifluoromethoxy-phenoxy)-piperidin-1-yl]-ethoxy}-2H-pyridazin-3-one]
melting point: 126 °C

SMILES: Cn1nccc(OCC(=O)N2CCC(Oc3ccc(F)cc3Cl)CC2)c1=O [Example 22, 4-{2-[4-(2-Chloro-4-fluoro-phenoxy)-piperidin-1-yl]-2-oxo-ethoxy}-2-methyl-2H-pyridazin-3-one]
melting point: 135 °C

SMILES: CC(=O)c1ccc(F)cc1OC1CCN(C(=O)COc2ccnn(C)c2=O)CC1 [Example 23, 4-{2-[4-(2-Acetyl-5-fluoro-phenoxy)-piperidin-1-yl]-2-oxo-ethoxy}-2-methyl-2H-pyridazin-3-one]
melting point: 192 °C

SMILES: Cn1ncc(OCC(=O)N2CCC(Oc3ccc(Cl)cc3Cl)CC2)cc1=O [Example 26, 5-{2-[4-(2,4-Dichloro-phenoxy)-piperidin-1-yl]-2-oxo-ethoxy}-2-methyl-2H-pyridazin-3-one]
melting point: 140 °C

SMILES: CN(Cc1ccc(Cl)c(Cl)c1)C1CCN(C(=O)CNc2ccnn(C)c2=O)CC1 [Example 28, 4-(2-{4-[(3,4-Dichloro-benzyl)-methyl-amino]-piperidin-1-yl}-2-oxo-ethylamino)-2-methyl-2H-pyridazin-3-one]
melting point: 155 °C

SMILES: Cn1nccc(NCC(=O)N2CCN(C(=O)c3cc(F)ccc3C(F)(F)F)CC2)c1=O [Example 29, 4-{2-[4-(5-Fluoro-2-trifluoromethyl-benzoyl)-piperazin-1-yl]-2-oxo-ethylamino}-2-methyl-2H-pyridazin-3-one]
melting point: 210 °C
